Assay results published in paper PMC9705435, “Thiocarbazate building blocks enable the construction of azapeptides for rapid development of therapeutic candidates” (Nature Communications, 2022).
Entries after “also recorded” stand apart in the source; their conditions may differ. Numbered stars: 1 amine (or outer) side, 2 acyl side, 3 side chain; on linkers, the order of the positions; unused ones are H or OH. Square brackets hold non-standard residues; d marks the D form. Peptide text beside a SMILES is read from it. azaPhe = O=C(N(Cc1ccccc1)N[*:1])[*:2]; azaPro = O=C(N1CCCN1[*:1])[*:2]

Key:
in vitro = conditions: male, C57BL/6J, mouse, blood
murine monocytes = test: HMGB1-stimulated TNF release in murine splenic monocytes (ELISA); assay type: cell-based, mouse; conditions: 0.1, 1 or 10 µM peptide, HMGB1 1 µg/ml, 24 h
From the text: 4.2 HMGB1 protein preparation
For TNF ELISA experiments, […]

[1] = test system: STZ-induced type 1 diabetic (T1D) mice; test: Low-dose streptozotocin (STZ)-induced type 1 diabetes in mice; conditions: 500 µg/mouse/day i.p.; for severity of insulitis (insulitis scores): 2 weeks of treatment, H&E; for development of hyperglycemia: vs diabetic (saline) group
Procedure: Data are presented as means ± SD. […] Mice were simultaneously injected i.p. with saline, FSSE (500 µg/mouse/day), or azaF^1SSazaE^4 (500 µg/mouse/day). Blood glucose was measured on day 0, 7 and 14. Number of mice per group: saline n = 7; FSSE n = 8; azaF^1SSazaE^4 n = 8. Data are presented as mean values ± SEM. […] Serum samples from mice challenged with STZ were collected at day 14 and analyzed by ELISA. n = 7 mice per group. Data are presented as mean values ± SEM. […] Number of islets per group: saline n = 3, 13 islets; FSSE n = 2, 11 islets; azaF^1SSazaE^4 n = 3, 23 islets. P-value was calculated using two-sided Fisher’s exact test to compare islets without (score 0) and with (score 1-4) insulitis. Pancreas tissue was histologically analyzed from 2–3 animals per group. Representative hematoxylin and eosin (H&E) stained images of islets from each group are shown (right panel). Scale bars, 50 μm.
given free access to water and standard rodent chow and were acclimated to their environment for at least 1 week before experimentation.
4.5 STZ-induced type 1 diabetes in mice
Induction of Diabetes T1D was induced by administration of streptozotocin (STZ) (Sigma-Aldrich) (50 mg/kg dissolved in sodium citrate buffer, pH 4.5) to 6-8 weeks old C57Bl/6J mice intraperitoneally (i.p.) once each day for 5 consecutive days.
Mice were given water supplemented with 10% sucrose (Sigma-Aldrich) for six days to prevent sudden hypoglycemia during streptozotocin administration.
of FSSE, azaF1SSazaE4 or saline. Blood glucose with either FreeStyle Lite blood glucose meter (Abbot Diabetes Care, Inc.) or Bayer Contour blood glucose meter (Bayer HealthCare, LLC.) and body weight were measured once weekly. At the end of each study, mice were euthanized by CO2 asphyxiation. Blood and pancreas were collected for further analysis.
Pancreas were fixed in 10% formalin and processed for paraffin embedding (AML Laboratory and Genecopoeia). 7-μm-thick sections were stained with hematoxylin/eosin (Genecopoeia) and the degree of insulitis was eva luated microscopically. Islets were analyzed in multiple sections at 20×.

[2] = test system: mouse model of acetaminophen-induced liver toxicity; test: Acetaminophen (APAP)-induced liver toxicity in mice; assay type: in vivo; conditions: vs scrambled peptide; for liver function enzymes and plasma cytokines / pro-inflammatory markers: APAP 200 mg/kg IP, 50 µg/mouse at 2 and 7 hours post-APAP, 24 h; for protection / survival in APAP toxicity model: APAP 400 mg/kg, 50 µg/mouse IP at 2 h post-APAP, then once a day for 5 days
3T3 cells = target: T1, 3T3 cells (Mus musculus, UniProt P32299); test: PGE2 induction in 3T3 fibroblasts (ELISA); assay type: cell-based; conditions: 7 min, serum-free medium
T1 sequence (P32299 1-392): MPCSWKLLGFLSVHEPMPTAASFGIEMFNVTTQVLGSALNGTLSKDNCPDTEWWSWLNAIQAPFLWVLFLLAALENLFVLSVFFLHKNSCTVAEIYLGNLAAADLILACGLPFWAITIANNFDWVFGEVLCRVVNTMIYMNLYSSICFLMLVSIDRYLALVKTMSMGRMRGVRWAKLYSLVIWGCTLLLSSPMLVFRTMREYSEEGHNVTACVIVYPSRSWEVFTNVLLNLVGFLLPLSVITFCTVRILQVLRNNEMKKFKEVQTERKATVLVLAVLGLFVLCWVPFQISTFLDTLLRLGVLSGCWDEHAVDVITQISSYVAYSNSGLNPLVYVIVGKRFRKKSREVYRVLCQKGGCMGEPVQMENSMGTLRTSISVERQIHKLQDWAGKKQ
Procedure: Subconfluent monolayers of 3T3 cells were incubated with test compounds for 7 min in serum-free medium and supernatants were collected and analyzed for PGE2 by ELISA.
5.1 In vitro PGE2 induction
3T3 Swiss Albino cell line (ATCC CCL-92) was purchased from American Type Culture Collection (Manassas, VA).
Following trypsinization, cells were washed and resuspended in DMEM-Complete at a cell density of 0.03 x 10^6 cells per ml. Cells were seeded into 96 -well flat-bottomed culture plates (6 x 10^3 cells per well in 200 µl). After one day of culture, 3T3 cell monolayers were washed two times in pre-warmed DMEM supplemented with 20 mM HEPES (DMEM-HEPES) and DMEM-HEPES
supernatants were collected and immediately frozen at -20°C for future PGE2 analyses. PGE2 levels in supernatants were determined using PGE2 ELISA kit (Enzo Life Sciences, Farmingdale, NY) following manufacturer’s instructions. Samples were assayed in quadruplicate. PGE2 ELISA data were analyzed using GraphPad Prism Version 9.3.1.

[3] = target: T2, Human B2 (h) receptor (B2R) (Homo sapiens, UniProt P30411); test: Human B2 (h) (agonist radioligand) receptor binding assay, [3H]bradykinin displacement
T2 construct: host or cells: CHO cells
T2 sequence (P30411 1-391): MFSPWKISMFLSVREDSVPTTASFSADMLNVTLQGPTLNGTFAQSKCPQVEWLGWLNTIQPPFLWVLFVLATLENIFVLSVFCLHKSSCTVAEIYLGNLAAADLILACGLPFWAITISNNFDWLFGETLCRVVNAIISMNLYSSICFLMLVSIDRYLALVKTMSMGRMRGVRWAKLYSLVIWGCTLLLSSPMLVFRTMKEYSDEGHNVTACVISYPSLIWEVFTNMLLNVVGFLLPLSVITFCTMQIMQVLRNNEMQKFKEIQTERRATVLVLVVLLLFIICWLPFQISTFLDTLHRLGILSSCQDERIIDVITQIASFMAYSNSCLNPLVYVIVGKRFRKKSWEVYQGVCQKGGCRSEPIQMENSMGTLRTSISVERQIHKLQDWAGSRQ
From the text: The data was collected by CRO Eurofins Cerep (France) and the result is attached as an additional data file. B2R radioligand agonist binding displacement assay for determination of IC-50.
Test compounds (FI-U / [azaP2, azaF8-BK (70), FI-2V / azaF8-BK (68), and FI-8G / azaP2-BK (63)) were supplied to Eurofins in a blinded manner and run at five concentrations to determine the IC-50’s. Standard company control test compounds were used for assay validation. Experimental assays achieved inhibition of more than 50% and were considered to represent significant effects of the test compounds.
(B2(h)) was used as the agonist for B2R receptor binding. The results are expressed as a percent of control specific binding (measured specific binding /control specific binding)*100, and as a percent inhibition of control specific binding (100 minus (measured specific binding/ control specific binding)*100) obtained in the presence of the test compounds. The IC50 values (concentration causing a half-maximal inhibition of control specific binding) and Hill coefficients (nH) were determined by non-linear regression analysis of the competition curves generated with mean replicate values using Hill equation curve fitting Y=D+[ A-D / 1+(C/C50) nH] where Y = specific binding, A = left asymptote of the curve, D = right asymptote of the curve, C = compound concentration, C50 = IC50, and nH = slope factor. This analysis was performed using software developed at Cerep (Hill software) and validated by comparison with data generated by the commercial software SigmaPlot® 4.0 for […]
The inhibition constants (Ki) were calculated using the Cheng Prusoff equation. Ki=IC50/(1+L/Kd) where L = concentration of radioligand in the assay, and Kd = affinity of the radioligand for the receptor. A scatchard plot is used to determine the Kd. […]
9.1. Experimental Conditions
9.1.1. In Vitro Pharmacology: Binding Assays
Assay Source Ligand Conc. Kd Non Specific Incubation Detection Bibl.
(agonist recombinant (1 µM) RT counting
9.2. Analysis and expression of results
9.2.1. In Vitro Pharmacology: Binding Assays
The results are expressed as a percent of control specific binding measured specific binding *100 […]
and as a percent inhibition of control specific binding
100-( measured specific binding *100) […]
obtained in the presence of the test compounds.
The IC50 values (concentration causing a half-maximal inhibition of control specific binding) and Hill coefficients (nH) were determined by non-linear regression analysis of the competition curves generated with mean replicate values using Hill equation […]
where Y = specific binding, A = left asymptote of the curve, D = right asymptote of the curve, C = compound concentration, C50 = IC50, and nH = slope factor. This analysis was performed using software developed at Cerep (Hill software) and validated by […]
The inhibition constants (Ki ) were calculated using the Cheng Prusoff equation where L = concentration of radioligand in the assay, and KD = affinity of the radioligand for the receptor. A scatchard plot is used to […]

rats = test: Acute blood pressure monitoring (mean arterial pressure) in anesthetized rats; assay type: in vivo, rat; conditions: Icatibant 10 µg/kg IV-bolus 15 min before azaF^8-BK
Procedure: Each grey data point represents one animal. Mean values (with SEM where indicated) for animals given experimental agent were compared with vehicle.
Next, in vivo bioactivity of aza-BK analogues was evaluated in an acute blood pressure monitoring study in rats[61] based on the known blood pressure lowering effect of BK. Briefly, rats were anesthetized and changes in mean arterial blood pressure (MAP) were recorded during intravenous (IV) injection of test agents (6.4 µg/kg) (Fig. 4b).
Statistical analysis. […] Data are presented as means ± SEM unless otherwise stated. Differences between treatment groups were determined by 2-tailed Unpaired t-test; p value less than 0.05 was considered statistically significant. […] P values less than 0.05 were considered statistically significant.
5.2 Surgical procedure and physiological blood pressure measurement
Adult male Sprague Dawley rats (n = 22, weight: 300 – 350 gm; age: 8 – 10 weeks) from Charles River Labs were used under the approval of Institutional Animal Care and Use Committee at The Feinstein Institutes for Medical Research
Rats were anesthetized using isoflurane at 1-3 %. Body temperature was maintained at 37°C using a heating pad. […] All physiological signals were registered using PowerLab, BioAmp and BridgeAmp (ADInstruments, CO, USA), which were recorded on a computer using LabChart v8 software (ADInstruments, CO, USA). […]

Molecule	half-life (in vitro)	HMGB1-induced TNF production (murine monocytes)	severity of insulitis (insulitis scores) [1]	development of hyperglycemia [1]	EC50 (3T3 cells)	IC50 [3]	Ki [3]	% Inhibition of Control Specific Binding, 1st ([3]; 1.0E-06 M)	% Inhibition of Control Specific Binding, 2nd ([3]; 1.0E-06 M)	% Inhibition of Control Specific Binding, Mean ([3]; 1.0E-06 M)	% Inhibition of Control Specific Binding, 1st ([3]; 1.0E-07 M)	% Inhibition of Control Specific Binding, 2nd ([3]; 1.0E-07 M)	% Inhibition of Control Specific Binding, Mean ([3]; 1.0E-07 M)	% Inhibition of Control Specific Binding, 1st ([3]; 1.0E-08 M)	% Inhibition of Control Specific Binding, 2nd ([3]; 1.0E-08 M)	% Inhibition of Control Specific Binding, Mean ([3]; 1.0E-08 M)	% Inhibition of Control Specific Binding, 1st ([3]; 1.0E-09 M)	% Inhibition of Control Specific Binding, 2nd ([3]; 1.0E-09 M)	% Inhibition of Control Specific Binding, Mean ([3]; 1.0E-09 M)	% Inhibition of Control Specific Binding, 1st ([3]; 3.0E-08 M)	also measured
NC(=O)N(CCC(=O)O)NC(=O)[C@H](CO)NC(=O)[C@H](CO)NC(=O)N(N)Cc1ccccc1 [Compound 51, azaF^1SSazaE^4-NH2]	> 120 min	dose-dependently reduced	much lower than that of FSSE-treated mice; also recorded: reduced	delayed the development of hyperglycemia	–	–	–	–	–	–	–	–	–	–	–	–	–	–	–	–	longer half-life than native FSSE peptide (mouse whole blood): > 60 fold; diabetes-induced body weight loss [1]: hindered diabetes-induced body weight loss; level of blood glucose ([1]; day 7 and 14): significantly attenuated; serum levels of insulin ([1]; day 14, ELISA): successfully restored; liver function enzymes and plasma cytokines / pro-inflammatory markers [2]: improved liver function enzymes as well as plasma cytokines; liver function enzymes and plasma cytokines / pro-inflammatory markers ([2]; listed as azaF1SSazaE4): reduced APAP-induced pro-inflammatory markers and serum liver enzymes; protection / survival in APAP toxicity model [2]: protective; protection / survival in APAP toxicity model ([2]; listed as azaF1SSazaE4): improves survival
N=C(N)NCCC[C@H](NC(=O)N(Cc1ccccc1)NC(=O)[C@@H]1CCCN1C(=O)[C@H](CO)NC(=O)[C@H](Cc1ccccc1)NC(=O)CNC(=O)[C@@H]1CCCN1C(=O)[C@@H]1CCCN1C(=O)[C@@H](N)CCCNC(=N)N)C(=O)O [Compound 68, RPPGFSPazaF^8R] (H-RPPGFSP[azaPhe]R-OH; N-terminus and C-terminus assumed)	39.3 ± 2.5 min	–	–	–	99.6 nM	8.8 nM	4.1 nM	99.7%	100.1%	99.9%	98.0%	95.2%	96.6%	61.5%	66.7%	64.1%	8.0%	2.9%	5.4%	72.4%	% Inhibition of Control Specific Binding, 2nd ([3]; 3.0E-08 M): 64.6%; % Inhibition of Control Specific Binding, Mean ([3]; 3.0E-08 M): 68.5%
N=C(N)NCCC[C@H](NC(=O)N(Cc1ccccc1)NC(=O)[C@@H]1CCCN1C(=O)[C@H](CO)NC(=O)[C@H](Cc1ccccc1)NC(=O)CNC(=O)[C@@H]1CCCN1C(=O)N1CCCN1C(=O)[C@@H](N)CCCNC(=N)N)C(=O)O [Compound 70, RazaP^2PGFSPazaF^8R] (H-R[azaPro]PGFSP[azaPhe]R-OH; N-terminus and C-terminus assumed)	29.2 ± 3.8 min	–	–	–	80.6 nM	11 nM	5.6 nM	97.1%	99.5%	98.3%	84.7%	91.4%	88.1%	36.3%	48.4%	42.3%	-9.2%	8.0%	-0.6%	67.6%	% Inhibition of Control Specific Binding, 2nd ([3]; 3.0E-08 M): 73.7%; % Inhibition of Control Specific Binding, Mean ([3]; 3.0E-08 M): 70.6%
NC(=O)[C@H](CCC(=O)O)NC(=O)[C@H](CO)NC(=O)[C@H](CO)NC(=O)[C@@H](N)Cc1ccccc1 [FSSE-NH2 (P5779), FSSE-NH2, reference compound]	–	dose-dependently reduced	reduced	no significant effect	–	–	–	–	–	–	–	–	–	–	–	–	–	–	–	–	half-life (in vitro; Ex-vivo stability t 1/2): < 2 min; Ex-vivo stability t 1/2 (male, C57BL/6J, mouse, blood): 2.0 ± 0.06 min
icatibant	–	–	–	–	–	–	–	–	–	–	–	–	–	–	–	–	–	–	–	–	effect of pretreatment on azaF^8-BK (68)-induced lowering of blood pressure (rats): partial inhibition
